How the values were obtained:
[1] = target: T1, Oxytocin receptor (Homo sapiens, UniProt P30559); test: Displacement of [3H]-oxytocin from human oxytocin receptor expressed in HEK293 cells after 90 mins by microbeta 2 microplate reader analysis; type: cell-based
T1 sequence (P30559 whole entry): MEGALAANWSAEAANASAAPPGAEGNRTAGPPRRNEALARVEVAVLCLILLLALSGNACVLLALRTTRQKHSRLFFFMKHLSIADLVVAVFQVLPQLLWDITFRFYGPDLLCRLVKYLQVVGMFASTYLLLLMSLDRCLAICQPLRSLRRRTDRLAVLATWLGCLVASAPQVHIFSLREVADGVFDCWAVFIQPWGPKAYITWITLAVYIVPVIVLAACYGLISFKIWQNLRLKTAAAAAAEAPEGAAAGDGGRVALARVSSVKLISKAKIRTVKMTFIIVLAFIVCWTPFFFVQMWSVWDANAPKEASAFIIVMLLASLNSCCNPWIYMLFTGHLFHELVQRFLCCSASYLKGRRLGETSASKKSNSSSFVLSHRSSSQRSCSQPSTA

[2] = target: T1, Oxytocin receptor; test: Agonist activity at human oxytocin receptor expressed in HEK293 cells assessed as increase in IP1 accumulation preincubated for 1 hr followed by addition of Ab-Cryptate and IP1-d2 by HTRF assay; type: functional, cell-based
[3] = target: T1, Oxytocin receptor; test: Antagonist activity at human oxytocin receptor expressed in HEK293 cells assessed as inhibition of oxytocin induced IP1 accumulation pretreated for 30 mins measured 1 hr post Ab-Cryptate and IP1-d2 addition by HTRF assay; type: functional, cell-based
[4] = target: T2, Vasopressin V1a receptor (Homo sapiens, UniProt P37288); test: Displacement of [3H]-vasopressin from human vasopressin 1a receptor expressed in HEK293 cells after 90 mins by microbeta 2 microplate-reader method; type: cell-based
T2 sequence (P37288 whole entry): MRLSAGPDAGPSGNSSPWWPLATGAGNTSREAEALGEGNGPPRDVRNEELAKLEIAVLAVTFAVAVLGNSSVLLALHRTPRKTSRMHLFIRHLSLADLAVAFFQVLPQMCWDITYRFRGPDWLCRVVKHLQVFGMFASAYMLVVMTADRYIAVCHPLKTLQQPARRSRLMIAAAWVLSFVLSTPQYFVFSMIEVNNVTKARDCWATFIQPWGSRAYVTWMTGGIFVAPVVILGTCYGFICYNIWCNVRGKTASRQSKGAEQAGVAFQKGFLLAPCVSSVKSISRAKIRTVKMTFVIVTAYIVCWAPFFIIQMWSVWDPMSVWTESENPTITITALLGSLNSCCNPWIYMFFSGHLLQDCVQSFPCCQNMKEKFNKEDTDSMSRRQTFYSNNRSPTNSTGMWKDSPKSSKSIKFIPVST

[5] = target: T2, Vasopressin V1a receptor; test: Agonist activity at human vasopressin 1a receptor expressed in HEK293 cells assessed as increase in IP1 accumulation preincubated for 1 hr followed by addition of Ab-Cryptate and IP1-d2 by HTRF assay; type: functional, cell-based
[6] = target: T2, Vasopressin V1a receptor; test: Antagonist activity at human vasopressin 1a receptor expressed in HEK293 cells assessed as inhibition of vasopressin induced IP1 accumulation pretreated for 30 mins measured 1 hr post Ab-Cryptate and IP1-d2 addition by HTRF assay; type: functional, cell-based

Ki [1]	EC50 [2]	IC50 [3]	Ki [4]	EC50 [5]	IC50 [6]	Compound
> 10 µM	> 10 µM	> 10 µM	0.195 µM	> 10 µM	> 10 µM	COc1cc(CN2CCN(CCCCCCC(=O)N3Cc4cnn(C)c4Nc4ccccc43)CC2)cc(OC)c1
> 10 µM	> 10 µM	> 10 µM	0.13 µM	> 10 µM	> 10 µM	Cn1ncc2c1Nc1ccccc1N(C(=O)CCCCCCN1CCN(Cc3cc(O)cc(O)c3)CC1)C2
> 10 µM	> 10 µM	> 10 µM	0.409 µM	> 10 µM	> 10 µM	COc1cc(CN2CCN(CCCCC(=O)N3Cc4cnn(C)c4Nc4ccccc43)CC2)cc(OC)c1
8.35 µM	> 10 µM	> 10 µM	0.064 µM	> 10 µM	4.67 µM	Cn1ncc2c1Nc1ccccc1N(C(=O)CCCCCCCN1CCN(Cc3cc(O)cc(O)c3)CC1)C2
0.801 µM	> 10 µM	4.13 µM	0.062 µM	> 10 µM	1.11 µM	COc1cc(CN2CCN(C(=O)NCc3ccc(C(=O)N4Cc5cnn(C)c5Nc5ccccc54)cc3C)CC2)cc(OC)c1
> 10 µM	> 10 µM	> 10 µM	0.466 µM	> 10 µM	> 10 µM	Cn1ncc2c1Nc1ccccc1N(C(=O)CCCCN1CCN(Cc3cc(O)cc(O)c3)CC1)C2
7.45 µM	> 10 µM	> 10 µM	0.266 µM	> 10 µM	8.2 µM	COc1cc(CN2CCN(CCCCCC(=O)N3Cc4cnn(C)c4Nc4ccccc43)CC2)cc(OC)c1
> 10 µM	> 10 µM	> 10 µM	0.449 µM	> 10 µM	> 10 µM	Cn1ncc2c1Nc1ccccc1N(C(=O)CCCCCN1CCN(Cc3cc(O)cc(O)c3)CC1)C2
> 10 µM	> 10 µM	> 10 µM	0.248 µM	> 10 µM	7.67 µM	COc1cc(CN2CCN(CCCCCCCC(=O)N3Cc4cnn(C)c4Nc4ccccc43)CC2)cc(OC)c1
